In PubChem BioAssay AID330 (DTP/NCI, 2004):
“And” between values parts separate entries of the source, which are not always exact repeats. Equal entries are not always repeated. Toxic doses and inconclusive results are not listed. The calls were made as follows: active = survival T/C of 150% or more; inactive = T/C below 125% in these data.

System: P388 leukemia ip, CD2F1 mice, survival T/C
Test: NCI In Vivo Anticancer Drug Screen. Data for tumor model P388 Leukemia (intraperitoneal) in CD2F1 (CDF1) mice
Details: endpoint: median survival time, higher = longer survival
In short: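 Mice carrying the transplanted tumor received test compound or vehicle. Survival was recorded in each group, and the value is the treated-group measurement divided by that of the vehicle-treated control group.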

[1] = dose: 60.0 mg/kg/injection, schedule: Q01DX005 (ip), vehicle: saline with Tween-80
[2] = dose: 120.0 mg/kg/injection, schedule: Q01DX005 (ip), vehicle: saline with Tween-80
[3] = dose: 240.0 mg/kg/injection, schedule: Q01DX005 (ip), vehicle: saline with Tween-80
[4] = dose: 25.0 mg/kg/injection, schedule: Q01DX009 (ip), vehicle: distilled water + Tween-80
[5] = dose: 50.0 mg/kg/injection, schedule: Q01DX009 (ip), vehicle: distilled water + Tween-80
[6] = dose: 100.0 mg/kg/injection, schedule: Q01DX009 (ip), vehicle: distilled water + Tween-80
[7] = dose: 200.0 mg/kg/injection, schedule: Q01DX009 (ip), vehicle: distilled water + Tween-80

Measured: T/C

CCOc1c(N=Nc2ccccc2[N+](=O)[O-])c(C)nn1C(=S)S
inactive: dose: 60.0 mg/kg/injection, schedule: Q01DX005 (ip), vehicle: Klucel + Tween-80 103 % of control | dose: 120.0 mg/kg/injection, schedule: Q01DX005 (ip), vehicle: Klucel + Tween-80 97 % of control | dose: 240.0 mg/kg/injection, schedule: Q01DX005 (ip), vehicle: Klucel + Tween-80 92 % of control

S=C(CC(=S)N1CCOCC1)N1CCOCC1
inactive: [1] 103 % of control | [2] 89 % of control | [3] 97 % of control

COc1cc(C(=O)NC(=S)Nc2csc(-c3ccc(F)cc3)n2)cc(OC)c1OC
inactive: dose: 50.0 mg/kg/injection, schedule: Q01DX005 (ip), vehicle: Klucel (hydroxypropylcellulose) (HPC) 100 % of control | dose: 100.0 mg/kg/injection, schedule: Q01DX005 (ip), vehicle: Klucel (hydroxypropylcellulose) (HPC) 94 % of control | dose: 200.0 mg/kg/injection, schedule: Q01DX005 (ip), vehicle: Klucel (hydroxypropylcellulose) (HPC) 90 % of control

O=[N+]([O-])c1cc(Br)c2c(c1)CCN2
inactive: [4] 98 % of control | [5] 100 % of control | [6] 97 % of control | [7] 103 % of control | dose: 400.0 mg/kg/injection, schedule: Q01DX009 (ip), vehicle: distilled water + Tween-80 116 % of control

c1cnc(Nc2c3ccccc3nc3ccccc23)nc1
inactive: dose: 100.0 mg/kg/injection, schedule: Q04DX002 (ip), vehicle: saline with Tween-80 103 % of control | dose: 200.0 mg/kg/injection, schedule: Q04DX002 (ip), vehicle: saline with Tween-80 103 % of control | dose: 400.0 mg/kg/injection, schedule: Q04DX002 (ip), vehicle: saline with Tween-80 94 % of control

O=P(O)(O)CCCNO
inactive: dose: 60.0 mg/kg/injection, schedule: Q01DX005 (ip), vehicle: saline 95 % of control | dose: 120.0 mg/kg/injection, schedule: Q01DX005 (ip), vehicle: saline 91 % of control | dose: 240.0 mg/kg/injection, schedule: Q01DX005 (ip), vehicle: saline 90 % of control

COc1cc(C(O)(CCN2CCCCC2)c2ccc3c(c2)OCO3)cc(OC)c1OC (stereo not given)
inactive: dose: 50.0 mg/kg/injection, schedule: Q01DX005 (ip), vehicle: saline + Tween-80 + alcohol 94 % of control | dose: 100.0 mg/kg/injection, schedule: Q01DX005 (ip), vehicle: saline + Tween-80 + alcohol 100 % of control | dose: 200.0 mg/kg/injection, schedule: Q01DX005 (ip), vehicle: saline + Tween-80 + alcohol 93 % of control

CCOP(=O)(O)C1CCCC(C)[N-]1.CCOP(=O)(O)C1CCCC(C)[N-]1.CCOP(=O)(O)C1CCCC(C)[N-]1.[Fe+3] (stereo not given)
inactive: dose: 12.5 mg/kg/injection, schedule: Q04DX003 (ip), vehicle: saline 91 % of control | dose: 25.0 mg/kg/injection, schedule: Q04DX003 (ip), vehicle: saline 95 % of control | dose: 50.0 mg/kg/injection, schedule: Q04DX003 (ip), vehicle: saline 94 % of control | dose: 400.0 mg/kg/injection, schedule: Q04DX003 (ip), vehicle: saline 86 % of control

CCCC[As](CCCC)SC1CCC2(C)C(=CCC3C4CCC(=O)C4(C)CCC32)C1 (stereo not given)
inactive: dose: 12.5 mg/kg/injection, schedule: Q01DX009 (ip), vehicle: distilled water + Tween-80 98 % of control | [4] 98 % of control | [5] 92 % of control | [6] 89 % of control | [7] 107 % of control

CNC(=O)OCc1c(COC(=O)NC)c(-c2ccc(F)cc2)n(C)c1C
inactive: [5] 91 % of control

S=C(Nc1ccc(Cl)cc1)SSC(Cl)(Cl)Cl
inactive: dose: 12.5 mg/kg/injection, schedule: Q01DX009 (ip), vehicle: saline with Tween-80 91 % of control | dose: 25.0 mg/kg/injection, schedule: Q01DX009 (ip), vehicle: saline with Tween-80 100 % of control | dose: 50.0 mg/kg/injection, schedule: Q01DX009 (ip), vehicle: saline + alcohol 112 % of control | dose: 50.0 mg/kg/injection, schedule: Q01DX009 (ip), vehicle: saline with Tween-80 115 % of control

COC(=O)CC1C2(C)CC34OC5(C)OC6(C7CC(=O)OC(c8ccoc8)C7(C)CCC6(O5)C13C)C(OC(=O)C(C)C)C4(O)C2OC(=O)C(C)C (stereo not given)
inactive: dose: 0.37 mg/kg/injection, schedule: Q01DX009 (ip), vehicle: Klucel (hydroxypropylcellulose) (HPC) 109 % of control | dose: 0.75 mg/kg/injection, schedule: Q01DX009 (ip), vehicle: Klucel (hydroxypropylcellulose) (HPC) 109 % of control | dose: 1.5 mg/kg/injection, schedule: Q01DX009 (ip), vehicle: Klucel (hydroxypropylcellulose) (HPC) 102 % of control | dose: 3.0 mg/kg/injection, schedule: Q01DX009 (ip), vehicle: Klucel (hydroxypropylcellulose) (HPC) 101 % of control

CC(C)(C)c1ccc(C(=O)NNC(O)C(F)(F)F)cc1 (stereo not given)
inactive: dose: 100.0 mg/kg/injection, schedule: Q04DX002 (ip), vehicle: Klucel (hydroxypropylcellulose) (HPC) 101 % of control | dose: 200.0 mg/kg/injection, schedule: Q04DX002 (ip), vehicle: Klucel (hydroxypropylcellulose) (HPC) 103 % of control

c1ccc(Cn2ccnc2CSCCSCc2nccn2Cc2ccccc2)cc1
inactive: dose: 30.0 mg/kg/injection, schedule: Q01DX005 (ip), vehicle: Klucel (hydroxypropylcellulose) (HPC) 101 % of control | dose: 60.0 mg/kg/injection, schedule: Q01DX005 (ip), vehicle: Klucel (hydroxypropylcellulose) (HPC) 99 % of control and 90 % of control | dose: 120.0 mg/kg/injection, schedule: Q01DX005 (ip), vehicle: Klucel (hydroxypropylcellulose) (HPC) 99 % of control and 105 % of control | dose: 240.0 mg/kg/injection, schedule: Q01DX005 (ip), vehicle: Klucel (hydroxypropylcellulose) (HPC) 97 % of control

CCN(CC)c1ccc(/C=N\NC(=O)C(=O)N/N=C\c2ccc(N(CC)CC)cc2)cc1
inactive: dose: 50.0 mg/kg/injection, schedule: Q01DX005 (ip), vehicle: saline with Tween-80 87 % of control | dose: 100.0 mg/kg/injection, schedule: Q01DX005 (ip), vehicle: saline with Tween-80 87 % of control | dose: 200.0 mg/kg/injection, schedule: Q01DX005 (ip), vehicle: saline with Tween-80 89 % of control

CC([NH-])C[NH-].O=C(O)C(=O)O.[Pt+2]
active: dose: 6.25 mg/kg/injection, schedule: Q04DX002 (ip), vehicle: saline with Tween-80 151 % of control | dose: 6.25 mg/kg/injection, schedule: Q04DX002 (ip), vehicle: saline 150 % of control

NNC(=O)CC(NN)c1ccccc1O (stereo not given)
inactive: [1] 104 % of control | [2] 105 % of control | [3] 105 % of control

COc1cc2cccnc2c2[nH]c(=O)c3c(c12)CCC3
inactive: dose: 100.0 mg/kg/injection, schedule: Q04DX003 (ip), vehicle: saline 101 % of control | dose: 200.0 mg/kg/injection, schedule: Q04DX003 (ip), vehicle: saline 99 % of control

CC[C@]12CN3CCc4c([nH]c5ccccc45)[C@@](C(=O)OC)(c4cc5c(cc4OC)N(C=O)[C@H]4[C@@](O)(C(=O)OC)[C@H](OC(C)=O)[C@]6(CC)C=CCN7CC[C@]54[C@@H]76)C[C@H](C3)[C@H]1O2
inactive: dose: 1.0 mg/kg/injection, schedule: Q01DX009 (ip), vehicle: saline 123 % of control
active: dose: 4.0 mg/kg/injection, schedule: Q01DX009 (ip), vehicle: saline 166 % of control | dose: 6.0 mg/kg/injection, schedule: Q01DX009 (ip), vehicle: saline 175 % of control

C=C1C(=O)OC2/C=C(\CO)CC/C=C(/C=O)CC(O)C12 (stereo not given)
inactive: dose: 1.89 mg/kg/injection, schedule: Q01DX005 (ip), vehicle: saline 101 % of control | dose: 3.75 mg/kg/injection, schedule: Q01DX005 (ip), vehicle: saline 101 % of control | dose: 7.5 mg/kg/injection, schedule: Q01DX005 (ip), vehicle: saline 99 % of control | dose: 15.0 mg/kg/injection, schedule: Q01DX005 (ip), vehicle: saline 96 % of control

Nc1ccc2c(SCCCCCCCCSc3c4ccccc4nc4cc(N)ccc34)c3ccccc3nc2c1
inactive: [1] 106 % of control | [2] 106 % of control

O=C1CCSC(=S)N1c1ccccc1C(F)(F)F
inactive: dose: 50.0 mg/kg/injection, schedule: Q01DX009 (ip), vehicle: suspension in saline 90 % of control | dose: 100.0 mg/kg/injection, schedule: Q01DX009 (ip), vehicle: suspension in saline 92 % of control | dose: 200.0 mg/kg/injection, schedule: Q01DX009 (ip), vehicle: suspension in saline 99 % of control

Nc1nnc2cc(F)ccc2n1
inactive: dose: 50.0 mg/kg/injection, schedule: Q01DX009 (ip), vehicle: Klucel (hydroxypropylcellulose) (HPC) 104 % of control | dose: 50.0 mg/kg/injection, schedule: Q01DX009 (ip), vehicle: saline 123 % of control | dose: 100.0 mg/kg/injection, schedule: Q01DX009 (ip), vehicle: Klucel (hydroxypropylcellulose) (HPC) 108 % of control | dose: 100.0 mg/kg/injection, schedule: Q01DX009 (ip), vehicle: saline 108 % of control | dose: 200.0 mg/kg/injection, schedule: Q01DX009 (ip), vehicle: Klucel (hydroxypropylcellulose) (HPC) 98 % of control | dose: 200.0 mg/kg/injection, schedule: Q01DX009 (ip), vehicle: saline 113 % of control
